Assay results from US10888569B1, “Methods and compositions for treating cancer” (THE UNIVERSITY OF CHICAGO, priority 2017, dated 2021).
“Also recorded” adds a separate entry of the source.

What was measured:
[1] = tested on: non-malignant mammary epithelial cells (184A1 and MCF10A); test: Cell viability (calcein AM) of non-malignant mammary epithelial cells; assay type: cell-based, human; conditions: 48 hours
Protocol: (§1) Breast cancer cells (5,000 cells/well) and non-malignant mammary epithelial cells (8,000 cells/well) were plated on 96-well plates to observe growth of cells every 4 hours by phase contrast imaging using an IncuCyte Zoom Live Cell Analysis system (Essen Bioscience). After 24 hours of plating, inhibitors were added and monitored until control cells reached 100% confluent. To determine cell viability, cells were seeded in black walled 96-well plates overnight and treated with inhibitors for 48 hours. Calcein AM (R&D system) in PBS was then added and incubated for 1 hour at 37° C. Fluorescence was determined using a Victor3 plate reader (PerkinElmer) with excitation at 420 nm and emission at 520 nm. The absorbance was used to reflect live cell numbers and was normalized to those in control with vehicles and shown as relative viability (%).

[2] = tested on: C3(1)-TAg tumors; test: Transgenic TNBC mouse model C3(1)-TAg treated with metformin; assay type: in vivo; conditions: metformin 200 mg/kg/day, absence of hemin; very low BACH1 expression
Protocol: For a transgenic TNBC mouse model, C3(1)-TAg, mice (n=5/group) were treated with metformin (200 mg/kg/day), after 10 days of mice developed palpable tumors (about 25 mm^3), at age of 15 weeks. Tumor volume was assayed by caliper measurement twice per week.

[3] = tested on: TNBC cells (BM1, MB436, MB468, BT549); assay type: cell-based, human
Protocol: TNBC cell lines stably knocked down with lenti-viral shRNA for BACH1 were constructed and maintained as described previously. Gene expression analysis of cultured cells and isolated tumor tissues used a Reverse transcriptase kit followed by Roche96 cycler for real time mRNA quantification and Lycor imaging for immunoblotting. For in vitro cell viability assay with mitochondrial inhibitors, TNBC cells (2×10^3-5×10^3/well) seeded on 96 well plates overnight with culture media (DMEM with 25 mM Glucose) were treated with inhibitors in fresh culture media (DMEM with 1.25 mM Glucose) for 48 and 72 hours and stained with calcein AM and/or monitored for cellular confluency using an IncuCyte Zoom Live Cell Analysis system. Extracellular flux analyzer was used to assay metabolic phenotypes of BACH1-depleted TNBC cells and TNBC cells that are treated with hemin overnight before assays. For bioinformatics analysis using primary patient data cohort (TCGA), cBioportal and R were used.
as §1

[4] = in vivo; cited from earlier work
[5] = metformin 200-300 mg/kg; cited from earlier work
[6] = tested on: MB436 xenograft tumors; conditions: hemin 50 mg/kg/day i.p. 10 consecutive days prior to metformin 200 mg/kg
Protocol: (§2) Two million human breast cancer cells (MDA-MB-436-shCont, MDA-MB-436-shBACH1, BM1-shBACH1, or BM1-shCont) in 100 μl PBS were injected into the mammary fat pads of 5 to 6 weeks old athymic nude female mice (Charles River Laboratories). When tumors were about 20-30 or 50 mm^3 in volume, hemin (50 mg/kg/day) or vehicle (20 mM NaOH in phosphate buffered saline) was injected intraperitoneally for 10 days prior to metformin treatment for 8 weeks. Metformin (200 mg/kg for MDA-MB-436 cells or 300 mg/kg for BM1-cells) was provided in drinking water ad libidum. Tumor growth was monitored weekly by caliper measurement in two dimensions to generate ellipsoid volumes using an equation of vol.=0.4×(L×W^2).

[7] = tested on: MB436-shBACH1 and BM1-shBACH1 (and shCont) xenograft TNBC tumors; test: BACH1-depleted xenograft TNBC tumors treated with metformin; assay type: in vivo, mouse
Protocol: as §2

[8] = tested on: NAD+/NADH in shBACH1 TNBC cells; test: NAD/NADH-Glo measurement; assay type: cell-based, human; conditions: pyruvate 2.5 mM added to growth media
Protocol: NAD(H) was measured using the NAD/NADH-Glo Assay kit (Promega) in accordance with the manufacturer's protocol. Lactate produced by cells were measured using the media that 5×10^5 cells were plated on 6 well plates in 2 ml media containing 1.25 mM glucose for 3 days or overnight. Harvested media was used for L-Lactate Assay Kit I (Eton Bioscience). For glucose consumption measurement, media from the cells cultured in 12 well plates were freshly replenished with media containing 5 mM glucose and collected after 21 hours for glucose measurement using Glucose Assay Kit I (Eton Bioscience).

[9] = Cell viability (calcein AM) of non-malignant mammary epithelial cells; assay type: cell-based, human; conditions: human, non-malignant mammary epithelial cells (184A1 and MCF10A), read-out: reduction of cell viability of non-malignant mammary epithelial cells
Protocol: as §1

Q: Which “viability of non-malignant mammary epithelial cells” value [1] does the source give for `CN(C)C(=N)N=C(N)N` [metformin] here?
A: Its value is “did not alter the viability”.

Q: What about the “sensitivity of C3(1)-TAg mice tumors” value [2] of the same compound?
A: The value was “highly sensitive to metformin”.

Q: And the “metformin response on overexpression of wt BACH1 in MB436-shBACH1 cells” value [3]?
A: Its value is “generated a metformin-resistance phenotype”.

Q: And the “resistance to metformin on expression of Mut-Bach1 following heme treatment” value ([3]; BM1-shBACH1 and MB436-shBACH1 cells)?
A: Its value is “restored resistance to metformin”.

Q: What about the “sensitivity to metformin on BACH knockdown” value ([3]; MB436 or BM1 cells) of the same compound?
A: Its value is “increased sensitivity to metformin treatment”.

Q: What about the “inhibitory effect of metformin after addition of pyruvate to growth media” value ([3]; pyruvate 2.5 mM, shBACH1 TNBC cells) of the same compound?
A: Its value is “completely rescued the inhibitory effect of metformin”.

Q: What about the “metformin resistance and cell growth after silencing COX15 or UQCRC1” value ([3]; siRNA for COX15 or UQCRC1 in BM1-shBACH1 cells) of the same compound?
A: Its value is “completely restored metformin resistance”.

Q: And the “levels in metformin-treated human diabetic patients” value [4]?
A: Its value is roughly 10 µM.

Q: What about the “mouse tumor and plasma concentrations” value [5] of the same compound?
A: Its value is 3 to 12 µM.

Q: And the “breast tumor growth / volume” value [6]?
A: Its value is “neither hemin nor metformin alone significantly altered tumor growth”.

Q: What about the “growth of BM1 xenograft tumors expressing shBACH1” value ([7]; metformin 300 mg/kg/day) of the same compound?
A: The value was “Comparable results”.

Q: And the “growth of TNBC tumors stably expressing shBACH1” value ([7]; metformin 200-300 mg/kg in drinking water, within a week of administration, MB436-shBACH1)?
A: Its value is “drastically suppressed; also recorded: reduction of MB436-shBACH1 tumor volume”.

Q: What about the control tumor growth ([7]; metformin alone, 200-300 mg/kg in drinking water, control (shCont) xenografts) of the same compound?
A: The control tumor growth was “no effect on control tumor growth”.

Q: And the tumor-free mice ([7]; shBACH1 MB436 xenograft mice following metformin treatment)?
A: The tumor-free mice was “a significant fraction of shBACH xenograft mice were tumor-free; also recorded: a significant fraction of shBACH1 MB436 xenograft mice were tumor-free”.

Q: For `CC(=O)C(=O)O` [pyruvate], which “NAD+ levels” value [8] is on record?
A: Its value is “increased”.

Q: Which cytotoxicity at 48 h [9] does the source give for `C=C(C)[C@H]1Cc2c(ccc3c2O[C@@H]2COc4cc(OC)c(OC)cc4[C@@H]2C3=O)O1` [rotenone] here?
A: The cytotoxicity at 48 h was 25 to 50%.
